# Legend:
# HDAC1 = HDAC1 (Homo sapiens (Human), UniProt Q13547); test: HDAC enzyme assay; type: biochemical; details: 10 min preincubation, 16 μM substrate
# [1] = Rat cassette dosing pharmacokinetics (IV and PO); type: in vivo; details: male SD rats, plasma
# [2] = tested on: CYP1A2, CYP2C9, CYP2C19, CYP3A4, CYP2D6; test: Cyp inhibition in human liver microsomes (all isozymes); type: in vitro ADME
# Method: For Cyp inhibition, human liver microsomes from BD Gentest were incubated with Compound 028 or Compound 032 (10, 3.33, 1.11, 0.37, 0.12, 0.04, 0.01 μM) and substrate (CYP1A2: Phenacetin at 30 μM; CYP2C9: Diclofenac at 10 μM; CYP2C19: S-Mephenytoin at 35 μM; CYP3A4: Midazolam at 5 μM and Testosterone at 80 μM; CYP2D6: Bufuralol at 10 μM) for the following incubation times: CYP1A2, 2C9, 2D6: 10 minutes, 37° C.; CYP2C19: 45 minutes, 37° C.; CYP3A4: 5 minutes, 37° C. Substrate conversion was measured by liquid chromatography/mass spectrometry/mass spectrometry (LC/MS/MS). Inhibition was calculated by curve fitting in Graph Pad Prism.
# hERG = hERG (Homo sapiens (Human), UniProt Q12809); test: hERG inhibition, whole-cell patch clamp; type: cell-based; details: HEK293 cells stably transfected with hERG, tail current at -50 mV
# hERG, sequence (Q12809 whole entry): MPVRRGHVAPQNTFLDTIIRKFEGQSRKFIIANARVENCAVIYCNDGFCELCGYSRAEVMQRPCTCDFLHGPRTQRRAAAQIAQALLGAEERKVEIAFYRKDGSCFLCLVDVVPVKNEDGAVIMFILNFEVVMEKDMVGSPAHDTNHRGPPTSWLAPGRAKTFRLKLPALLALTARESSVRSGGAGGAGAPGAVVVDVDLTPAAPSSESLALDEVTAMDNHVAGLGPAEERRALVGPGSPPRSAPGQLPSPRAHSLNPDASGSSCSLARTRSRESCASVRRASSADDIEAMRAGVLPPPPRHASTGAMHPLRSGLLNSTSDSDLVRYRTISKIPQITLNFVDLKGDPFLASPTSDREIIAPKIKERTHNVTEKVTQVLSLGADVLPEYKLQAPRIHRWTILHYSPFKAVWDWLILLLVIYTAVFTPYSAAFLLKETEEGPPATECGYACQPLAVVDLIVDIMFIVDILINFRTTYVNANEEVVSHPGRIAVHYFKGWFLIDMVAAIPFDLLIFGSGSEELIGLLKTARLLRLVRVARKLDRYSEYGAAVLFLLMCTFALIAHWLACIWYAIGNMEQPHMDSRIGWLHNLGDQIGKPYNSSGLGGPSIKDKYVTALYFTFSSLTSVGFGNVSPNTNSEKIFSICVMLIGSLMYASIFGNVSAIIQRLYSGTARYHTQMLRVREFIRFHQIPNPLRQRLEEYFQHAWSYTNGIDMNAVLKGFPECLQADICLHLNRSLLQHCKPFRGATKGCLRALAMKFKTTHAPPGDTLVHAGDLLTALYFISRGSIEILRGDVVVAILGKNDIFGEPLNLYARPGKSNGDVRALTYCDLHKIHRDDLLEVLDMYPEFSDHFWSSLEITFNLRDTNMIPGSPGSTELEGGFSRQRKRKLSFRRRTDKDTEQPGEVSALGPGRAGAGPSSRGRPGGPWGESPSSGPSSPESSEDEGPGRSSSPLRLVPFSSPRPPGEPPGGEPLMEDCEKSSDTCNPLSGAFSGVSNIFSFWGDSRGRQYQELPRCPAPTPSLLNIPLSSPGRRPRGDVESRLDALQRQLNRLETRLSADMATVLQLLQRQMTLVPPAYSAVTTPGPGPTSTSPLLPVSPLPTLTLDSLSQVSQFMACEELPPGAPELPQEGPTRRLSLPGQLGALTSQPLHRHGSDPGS
# Method: For hERG inhibition assays, the cells used were HEK293 cells stably transfected with hERG (cell line obtained from Cytocentrics Inc. 3463 Magic Drive San Antonio, Tex. 78229). Composition of External Solution: NaCl, 137 mM; KCl, 4 mM; MgCl2, 1.0 mM; CaCl2, 1.8 mM; HEPES 10 mM; Dextrose 11 mM; Adjusted to a pH of 7.4 with NaOH. Composition of Internal Solution: KCl, 130.0 mM; MgCl2, 1.0 mM; HEPES, 5.0 mM; EGTA, 5.0 mM; NaCl 7.0 mM. Adjusted to a pH of 7.2 using KOH. Test Concentrations: 0.1, 1, 10, 100 μM. Vehicle: DMSO. Experiments were performed at 34+/−1° C. Current was recorded using the whole-cell patch clamp technique on the Cytopatch automated platform. hERG current was elicited with the following voltage protocol: hERG current amplitude was measured as the peak current at −50 mV (tail current). […] Each cell served as its own control. Data are presented as the IC50 calculated by non-linear regression analysis.
# HDAC1, sequence (Q13547 whole entry): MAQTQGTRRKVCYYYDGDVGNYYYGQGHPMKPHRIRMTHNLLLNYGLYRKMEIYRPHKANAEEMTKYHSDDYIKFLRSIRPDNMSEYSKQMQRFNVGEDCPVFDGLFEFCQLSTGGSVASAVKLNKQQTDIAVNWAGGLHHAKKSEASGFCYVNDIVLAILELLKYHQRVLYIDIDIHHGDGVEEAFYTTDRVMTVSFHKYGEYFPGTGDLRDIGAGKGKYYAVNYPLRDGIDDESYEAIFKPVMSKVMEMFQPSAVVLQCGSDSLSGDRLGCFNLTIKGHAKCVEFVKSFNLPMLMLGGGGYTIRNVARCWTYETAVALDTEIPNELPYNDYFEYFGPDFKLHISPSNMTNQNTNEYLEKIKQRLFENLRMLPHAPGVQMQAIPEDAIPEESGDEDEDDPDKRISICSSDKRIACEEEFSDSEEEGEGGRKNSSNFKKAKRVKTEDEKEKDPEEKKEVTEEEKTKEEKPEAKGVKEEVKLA
IC50 (HDAC1),AUC ([1]; PO 5 mg/kg),Cmax ([1]; PO 5 mg/kg),"half-life ([1]; PO 5 mg/kg, read-out: PO T1/2 (converted))","bioavailability ([1]; 5 mg/kg, oral AUC to IV AUC, dose adjusted)",IC50 [2],SMILES,IC50 (hERG)
< 0.01 µM,–,–,–,–,–,Nc1ccc(-c2ccccc2)cc1NC(=O)c1ncc(N2CCNCC2)s1 [Compound 049],–
–,15300 ng·h/mL,944 ng/mL,12.8 h,170%,> 10 µM,CN1CCN(c2ncc(C(=O)Nc3cc(-c4cccs4)ccc3N)s2)CC1 [Compound 030],70 µM

# — US10774056B2, “Substituted piperazines as selective HDAC1,2 inhibitors” (REGENACY PHARMACEUTICALS, LLC, priority 2016, dated 2020)
